Test results taken from patent US20150105252A1, “SUBSTITUTED PYRAZOLES AS HERBICIDES” (E I DU PONT DE NEMOURS AND COMPANY, priority 2013, published 2015).

How the values were obtained:
[1] = tested on: oat, wild; assay: Test C postemergence; type: in vivo, Avena fatua; details: for Oat, Wild plant response rating: scale 0 to 100
Excerpt: (§1) Seeds of plant species selected from blackgrass (Alopecurus myosuroides), ryegrass, Italian (Italian ryegrass, Lolium multiflorum), wheat (winter wheat, Triticum aestivum), galium (catchweed bedstraw, Galium aparine), corn (Zea mays), crabgrass, large (large crabgrass, Digitaria sanguinalis), foxtail, giant (giant foxtail, Setaria faberii), johnsongrass (Sorghum halepense), lambsquarters (Chenopodium album), morningglory (Ipomoea coccinea), nutsedge, yellow (yellow nutsedge, Cyperus esculentus), pigweed (redroot pigweed, Amaranthus retroflexus), ragweed (common ragweed, Ambrosia elation), soybean (Glycine max), barnyardgrass (Echinochloa crus-galli), oilseed rape (Brassica napus), waterhemp (common waterhemp, Amaranthus rudis), oat, wild (wild oat, Avena fatua), kochia (Kochia scoparia), Surinam grass (Brachiaria decumbens), foxtail, green (green foxtail, Setaria viridis), goosegrass (Eleusine indica), bromegrass, downy (downy bromegrass, Bromus tectorum), nightshade (eastern black nightshade, Solanum ptycanthum), cocklebur (common cocklebur, Xanthium strumarium), cupgrass, woolly (woolly cupgrass, Eriochloa villosa), bermudagrass (Cynodon dactylon), sunflower, (common oilseed sunflower, Helianthus annuus), Russian thistle (Salsola kali), and velvetleaf (Abutilon theophrasti) were planted into a blend of loam soil and sand and treated preemergence with test chemicals formulated in a non-phytotoxic solvent mixture which included a surfactant.
(§2) At the same time, plants selected from these crop and weed species and also chickweed (common chickweed, Stellaria media), canarygrass (littleseed canarygrass, Phalaris minor), and deadnettle (henbit deadnettle, Lamium amplexicaule), were planted in pots containing Redi-Earth® planting medium (Scotts Company, 14111 Scottslawn Road, Marysville, Ohio 43041) comprising spaghnum peat moss, vermiculite, wetting agent and starter nutrients and treated with postemergence applications of test chemicals formulated in the same manner. Plants ranged in height from 2 to 18 cm (1- to 4-leaf stage) for postemergence treatments. Treated plants and controls were maintained in a greenhouse for 13 to 15 days, after which time all species were compared to controls and visually evaluated. Plant response ratings, summarized in Table C, are based on a scale of 0 to 100 where 0 is no effect and 100 is complete control. A dash (-) response means no test result.

[2] = tested on: ryegrass, Italian; assay: Test C postemergence; type: in vivo, Lolium multiflorum; details: postemergence
Excerpt: as §1, §2

[3] = tested on: nutsedge, yellow; assay: Test C preemergence; type: in vivo, Cyperus esculentus; details: for Plant response rating (scale of 0 to 100), Nutsedge, Yellow: Preemergence, 250 g ai/ha; for Nutsedge, Yellow plant response rating / Plant response rating, Nutsedge, Yellow: preemergence; for Plant response rating, Nutsedge, Yellow: 62 g ai/ha, scale 0 to 100, 0 = no effect, 100 = complete control
Excerpt: as §1, §2

[4] = tested on: velvetleaf; assay: Test C preemergence; type: in vivo, Abutilon theophrasti; details: for Plant response rating (scale of 0 to 100), Velvetleaf: Preemergence, 250 g ai/ha; for Velvetleaf plant response rating / Plant response rating, Velvetleaf: preemergence; for Plant response rating, Velvetleaf: 62 g ai/ha, scale 0 to 100, 0 = no effect, 100 = complete control
Excerpt: as §1, §2

[5] = tested on: morningglory; assay: Test A postemergence; type: in vivo, Ipomoea spp.
Outline: (§3)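 Both timings tested concurrently in loam/sand soil: preemergence by directed soil spray, postemergence on plants of 2–10 cm at the one- to two-leaf stage. Greenhouse holding period was approximately 10 days before visual injury assessment (0–100, 0 = no effect).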

[6] = tested on: barnyardgrass; assay: Test A preemergence; type: in vivo, Echinochloa crus-galli; details: 0 to 100 scale
Outline: as §3

[7] = tested on: pigweed; assay: Test A postemergence; type: in vivo, Amaranthus retroflexus
Outline: as §3

[8] = tested on: corn; assay: Test A postemergence; type: in vivo, Zea mays
Outline: as §3

[9] = tested on: crabgrass, large; assay: Test A postemergence; type: in vivo, Digitaria sanguinalis
Outline: as §3

[10] = tested on: kochia; assay: Test C postemergence; type: in vivo, Kochia scoparia; details: for Kochia plant response rating: scale 0 to 100
Excerpt: as §1, §2

[11] = tested on: barnyardgrass; assay: Test A postemergence; type: in vivo, Echinochloa crus-galli; details: Postemergence
Outline: as §3

[12] = tested on: morningglory; assay: Test C preemergence; type: in vivo, Ipomoea coccinea; details: for Plant response rating (scale of 0 to 100), Morningglory: Preemergence, 250 g ai/ha; for Morningglory plant response rating / Plant response rating, Morningglory: preemergence; for Plant response rating, Morningglory: 62 g ai/ha, scale 0 to 100, 0 = no effect, 100 = complete control
Outline: (§4)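 Visual control ratings on a 0–100 scale (100 = complete control) made against untreated controls after 13 to 15 days in greenhouse. Compounds applied in surfactant-containing solvent mixture, either preemergence to loam/sand-sown seeds or postemergence to 1- to 4-leaf plants (2–18 cm) in peat medium.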

[13] = tested on: crabgrass, large; assay: Test C preemergence; type: in vivo, Digitaria sanguinalis; details: for Plant response rating (scale of 0 to 100), Crabgrass, Large: Preemergence, 250 g ai/ha; for Crabgrass, Large plant response rating / Plant response rating, Crabgrass, Large: preemergence; for Plant response rating, Crabgrass, Large: 62 g ai/ha, scale 0 to 100, 0 = no effect, 100 = complete control
Outline: as §4

[14] = tested on: soybean; assay: Test C postemergence; type: in vivo, Glycine max; details: postemergence; for Soybean plant response rating: 62 g ai/ha, scale 0 to 100
Excerpt: as §1, §2

[15] = postemergence, 250 g ai/ha, scale 0 to 100 (0 no effect, 100 complete control)
[16] = postemergence, 62 g ai/ha, scale 0 to 100, 0 no effect, 100 complete control
[17] = postemergence, 125 g ai/ha, scale 0 to 100, 0 no effect, 100 complete control
[18] = 250 g ai/ha, scale 0 to 100 (0 no effect, 100 complete control)
[19] = 125 g ai/ha, scale 0 to 100, 0 no effect, 100 complete control
[20] = 31 g ai/ha, scale 0 to 100 (0 no effect, 100 complete control), 13 to 15 days
[21] = 125 g ai/ha, scale 0 to 100, 0 is no effect, 100 is complete control
[22] = Postemergence, 500 g ai/ha, visual rating after approx. 10 days, 0 to 100 scale (0 no effect, 100 complete control)
[23] = postemergence, 125 g ai/ha, about 10 days, visual rating on 0 to 100 scale (0 no effect, 100 complete control)
[24] = Preemergence, 500 g ai/ha, 0 no effect, 100 complete control
[25] = preemergence, 125 g ai/ha, visual injury, approx. 10 days
[26] = 125 g ai/ha, 0 to 100 scale, 0 no effect, 100 complete control
[27] = 500 g ai/ha, visual rating after approx. 10 days, 0 to 100 scale (0 no effect, 100 complete control)

CCc1cc(C(=O)NOC(C)C)nn1Cc1cccc(OC(F)(F)F)c1 [Compound 70]
Oat, Wild plant response rating ([1]; Postemergence, 31 g ai/ha): 20
Plant response rating, Oat, Wild [1, 15]: 35
Plant response rating, Oat, Wild [1, 16]: 20
Plant response rating, Oat, Wild [1, 17]: 30
Plant response rating, Ryegrass, Italian [2, 18]: 50
Plant response rating, Ryegrass, Italian ([2]; 62 g ai/ha, scale 0 to 100, 0 no effect, 100 complete control): 25
Plant response rating, Ryegrass, Italian [2, 19]: 35
Plant response rating (scale of 0 to 100), Nutsedge, Yellow [3]: 85
Nutsedge, Yellow plant response rating [3, 20]: 0
Plant response rating, Nutsedge, Yellow ([3]; 13 to 15 days): 65
Nutsedge, Yellow plant response rating [3, 21]: 70
Plant response rating (scale of 0 to 100), Velvetleaf [4]: 100
Velvetleaf plant response rating [4, 20]: 20
Plant response rating, Velvetleaf ([4]; 13 to 15 days): 60
Velvetleaf plant response rating [4, 21]: 75
Morningglory plant response rating [5, 22]: 100
Morningglory plant response rating [5, 23]: 100
Barnyardgrass plant response rating [6, 24]: 100
Barnyardgrass plant response rating [6, 25]: 80
Pigweed plant response rating [7, 22]: 100
Pigweed plant response rating [7, 23]: 90
Corn plant response rating [8, 22]: 70
Corn plant response rating [8, 23]: 60
Crabgrass, Large plant response rating [9, 22]: 90
Crabgrass, Large plant response rating [9, 23]: 90
Kochia plant response rating ([10]; Postemergence, 31 g ai/ha): 50
Plant response rating, Kochia [10, 15]: 70
Plant response rating, Kochia [10, 16]: 55
Plant response rating, Kochia [10, 17]: 55
Barnyardgrass plant response rating [11, 26]: 80
Barnyardgrass plant response rating [11, 27]: 90
Plant response rating (scale of 0 to 100), Morningglory [12]: 95
Morningglory plant response rating [12, 20]: 0
Plant response rating, Morningglory ([12]; 13 to 15 days): 25
Morningglory plant response rating [12, 21]: 75
Plant response rating (scale of 0 to 100), Crabgrass, Large [13]: 100
Crabgrass, Large plant response rating [13, 20]: 95
Plant response rating, Crabgrass, Large ([13]; 13 to 15 days): 98
Crabgrass, Large plant response rating [13, 21]: 98
Soybean plant response rating [14]: 55
Plant response rating, Soybean [14, 18]: 65
Plant response rating, Soybean [14, 19]: 55

CCONC(=O)c1cc(CC)n(Cc2cccc(OC(F)(F)F)c2)n1 [Compound 72]
Oat, Wild plant response rating ([1]; Postemergence, 31 g ai/ha): 5
Oat, Wild plant response rating ([1]; postemergence, 62 g ai/ha): 5
Plant response rating, Oat, Wild [1, 15]: 35
Plant response rating, Oat, Wild [1, 17]: 20
Ryegrass, Italian plant response rating ([2]; 62 g ai/ha, scale 0 to 100): 10
Plant response rating, Ryegrass, Italian [2, 18]: 40
Plant response rating, Ryegrass, Italian [2, 19]: 15
Plant response rating (scale of 0 to 100), Nutsedge, Yellow [3]: 85
Nutsedge, Yellow plant response rating [3, 20]: 0
Plant response rating, Nutsedge, Yellow ([3]; 13 to 15 days): 40
Nutsedge, Yellow plant response rating [3, 21]: 60
Plant response rating (scale of 0 to 100), Velvetleaf [4]: 100
Velvetleaf plant response rating [4, 20]: 20
Plant response rating, Velvetleaf ([4]; 13 to 15 days): 100
Velvetleaf plant response rating [4, 21]: 100
Morningglory plant response rating [5, 22]: 90
Morningglory plant response rating [5, 23]: 80
Barnyardgrass plant response rating [6, 24]: 100
Barnyardgrass plant response rating [6, 25]: 90
Pigweed plant response rating [7, 22]: 100
Pigweed plant response rating [7, 23]: 90
Corn plant response rating [8, 22]: 80
Corn plant response rating [8, 23]: 70
Crabgrass, Large plant response rating [9, 22]: 90
Crabgrass, Large plant response rating [9, 23]: 80
Kochia plant response rating ([10]; Postemergence, 31 g ai/ha): 10
Kochia plant response rating ([10]; postemergence, 62 g ai/ha): 25
Plant response rating, Kochia [10, 15]: 55
Plant response rating, Kochia [10, 17]: 40
Barnyardgrass plant response rating [11, 26]: 90
Barnyardgrass plant response rating [11, 27]: 90
Plant response rating (scale of 0 to 100), Morningglory [12]: 85
Morningglory plant response rating [12, 20]: 15
Plant response rating, Morningglory ([12]; 13 to 15 days): 65
Morningglory plant response rating [12, 21]: 85
Plant response rating (scale of 0 to 100), Crabgrass, Large [13]: 98
Crabgrass, Large plant response rating [13, 20]: 55
Plant response rating, Crabgrass, Large ([13]; 13 to 15 days): 95
Crabgrass, Large plant response rating [13, 21]: 98
Soybean plant response rating [14]: 20
Plant response rating, Soybean [14, 18]: 40
Plant response rating, Soybean [14, 19]: 35
